These results are taken from patent US20240182420A1, “MICROBIOCIDAL ISONICOTINIC AMIDE DERIVATIVES” (SYNGENTA CROP PROTECTION AG, priority 2021, published 2024).

The subject of test [1] is Glomerella lagenarium syn Colletotrichum lagenarium. Description: Glomerella lagenarium syn. Colletotrichum lagenarium (anthracnose), liquid culture growth inhibition. The class given is cell-based. To be noted: Colletotrichum orbiculare, PDB nutrient broth, 24° C., 72 hrs, 620 nm, vs untreated control. The method, then: Conidia of the fungus from cryogenic storage were directly mixed into nutrient broth (PDB potato dextrose broth). A DMSO solution of the test compounds was placed into a microtiter plate (96-well format) and the nutrient broth containing the fungal spores was added to it. The test plates were incubated at 24° C. and the inhibition of growth was determined photometrically after 72 hrs at 620 nm.

Test [2] has as its system Botryotinia fuckeliana syn. Botrytis cinerea. Description: Botryotinia fuckeliana syn. Botrytis cinerea (gray mould), liquid culture growth inhibition. The class given is cell-based. To be noted: PDB nutrient broth, 24° C., 72 hrs, photometric, vs untreated control. The method, then: Conidia of the fungus from cryogenic storage were directly mixed into nutrient broth (PDB potato dextrose broth). A DMSO solution of the test compounds was placed into a microtiter plate (96-well format) and the nutrient broth containing the fungal spores was added to it. The test plates were incubated at 24° C. and the inhibition of growth was determined photometrically after 72 hrs.

For `Cc1nccc(C(=O)NCC(F)c2ccc(Cl)cc2Cl)c1Oc1cccc(C2CC2)c1` (centres unmarked) [Compound 1.12, 3-(3-cyclopropyl-phenoxy)-N-[2-(2,4-dichlorophenyl)-2-fluoro-ethyl]-2-methyl-pyridine-4-carboxamide], the inhibition of growth – broadly, the change of the read-out against control, counted positive when it falls – at 20 ppm in test [1] is ≥ 80%. As to `O=C(NCCc1ccc(Cl)cc1Cl)c1cc(C(F)(F)F)ncc1Oc1cccc(C2CC2)c1` [Compound 1.19, 5-(3-cyclopropyl-phenoxy)-N-[2-(2,4-dichlorophenyl)ethyl]-2-(trifluoromethyl) pyridine-4-carboxamide], the inhibition of growth at 20 ppm in test [1] is ≥ 80%. Same read-out and setting: with `N#Cc1ccccc1CCNC(=O)c1cc(Cl)ncc1Oc1cccc(C2CC2)c1` [Compound 1.23, 2-chloro-N-[2-(2-cyanophenyl)ethyl]-5-(3-cyclopropyl-phenoxy)pyridine-4-carboxamide] the figure was ≥ 80%. Still for that read-out and setting: with `COc1ccc(CCNC(=O)c2cc(Cl)ncc2Oc2cccc(C3CC3)c2)cc1OC` [Compound 1.26, 2-chloro-5-(3-cyclopropyl-phenoxy)-N-[2-(3,4-dimethoxyphenyl)ethyl]pyridine-4-carboxamide] the figure was ≥ 80%; with `O=C(NCCc1ccccc1)c1cc(Cl)ncc1Oc1cccc(C2CC2)c1` [Compound 1.29, 2-chloro-5-(3-cyclopropyl-phenoxy)-N-(2-phenylethyl) pyridine-4-carboxamide], ≥ 80%; with `O=C(NCCc1ccc(F)cc1)c1cc(Cl)ncc1Oc1cccc(C2CC2)c1` [Compound 1.31, 2-chloro-5-(3-cyclopropyl-phenoxy)-N-[2-(4-fluorophenyl)ethyl]pyridine-4-carboxamide], ≥ 80%.

For the molecule `O=C(NCCc1ccccc1Cl)c1cc(Cl)ncc1Oc1cccc(C2CC2)c1` [Compound 1.33, 2-chloro-N-[2-(2-chlorophenyl)ethyl]-5-(3-cyclopropyl-phenoxy)pyridine-4-carboxamide], the inhibition of growth at 20 ppm in test [1] is ≥ 80%.

With `N#Cc1ccc(CCNC(=O)c2cc(Cl)ncc2Oc2cccc(C3CC3)c2)cc1` [Compound 1.34, 2-chloro-N-[2-(4-cyanophenyl)ethyl]-5-(3-cyclopropyl-phenoxy) pyridine-4-carboxamide], in test [1], the inhibition of growth at 20 ppm is ≥ 80%.

For `O=C(NCCc1ccc(Cl)cc1Cl)c1cc(Cl)ncc1Oc1ccccc1` [Compound 1.45, 2-chloro-N-[2-(2,4-dichlorophenyl)ethyl]-5-phenoxy-pyridine-4-carboxamide], in test [2], the inhibition of growth at 20 ppm was ≥ 80%.

Regarding `Cc1cccc(Oc2cnc(Cl)cc2C(=O)NCCc2ccccc2Cl)c1` [Compound 1.54, 2-chloro-N-[2-(2-chlorophenyl)ethyl]-5-(3-methylphenoxy) pyridine-4-carboxamide], the inhibition of growth at 20 ppm in test [2] is ≥ 80%.

Turning to `COc1ccc(CCNC(=O)c2cc(Cl)ncc2Oc2cccc(C)c2)cc1` [Compound 1.55, 2-chloro-N-[2-(4-methoxyphenyl)ethyl]-5-(3-methylphenoxy) pyridine-4-carboxamide], the inhibition of growth at 20 ppm in test [2] is ≥ 80%. On the same count and under the same terms, with `Cc1cccc(Oc2cnc(Cl)cc2C(=O)NCC(F)c2ccc(F)cc2F)c1` (centres unmarked) [Compound 1.59, 2-chloro-N-[2-(2,4-difluorophenyl)-2-fluoro-ethyl]-5-(3-methylphenoxy) pyridine-4-carboxamide] the figure was ≥ 80%. As to `CCOc1cccc(Oc2cnc(Cl)cc2C(=O)NCC(F)c2ccc(Cl)cc2Cl)c1` (centres unmarked) [Compound 1.65, 2-chloro-N-[2-(2,4-dichlorophenyl)-2-fluoro-ethyl]-5-(3-ethoxyphenoxy) pyridine-4-carboxamide], in test [1], the inhibition of growth at 20 ppm was ≥ 80%. The same measure, in the same setting: with `N#Cc1cncc(Oc2cccc(C3CC3)c2)c1C(=O)NCC(F)c1ccc(Cl)cc1Cl` (centres unmarked) [Compound 1.97, 3-cyano-5-(3-cyclopropyl-phenoxy)-N-[2-(2,4-dichlorophenyl)-2-fluoro-ethyl]pyridine-4-carboxamide] the figure was ≥ 80%.
